Measurements from patent US20260294874A1, “COMPOSITIONS COMPRISING MODULATORS OF RIBONUCLEOPROTEIN GRANULE FORMATION AND DISSOLUTION AND METHODS OF USE THEREOF” (University of Virginia Patent Foundation, priority 2023, published 2026).
“Also recorded” adds a separate entry of the source.

How the values were obtained:
[1] = tested on: stress granules (G3BP1 foci) in HeLa cells; assay: Immunofluorescence phenotypic screen for stress granules (α-G3BP1) in stressed HeLa cells; assay type: cell-based; conditions: 2 h; for effect on SGs (in words): 25 μM; for inhibition at 25 µM: read-out: reduction/inhibition of SGs/cell
Experimental: SuTEx compound treatments. Prior to treatments, cells were washed twice with warm phosphate-buffered saline (PBS) and exchanged with serum-free DMEM (supplemented with 1% L-glutamine) for at least 30 minutes at 37° C. with 5% CO2. Compounds were then added as 1000×DMSO stocks (10 μL for 10 cm dishes and 3 μL for 6-well dishes), plates were mixed gently, and cells were incubated for two hours. All compounds were thoroughly vortexed and sonicated for five minutes prior to addition to ensure complete solvation. For microscopy experiments, cultures were seeded at 150,000 cells in 3 mL of DMEM in 6-well THERMO SCIENTIFIC™ BIOLITE™ brand microwell plates (Catalog No. 12556004; Thermo Fisher Scientific Inc., Waltham, Massachusetts. United States of America). For collection, media was aspirated, and cells were washed once with cold PBS before scraping from plates. Cells were centrifuged at 500×g at 4° C. for 5 minutes and supernatant was removed. Cell pellets were resuspended in cold PBS (1 mL) and centrifuged at 1,400×g at 4° C. for 3 minutes. Supernatant was again removed, and pellets were then snap-frozen in liquid nitrogen and stored at −80° C. until needed.
Immunofluorescence. Immunofluorescence (IF) of HEK293T cells was performed as previously described in Ciancone et al., 2022. HeLa cells were seeded at 9.0×10^4 in a 24-well plate with 12-mm glass coverslips. The next day, the cells were treated with 25 μM SuTEx probe for 2 hours in DMEM medium without FBS. The cells were then treated with 75 μM NaAsO2 for 30 minutes and fixed with 3% paraformaldehyde in PBS for 15 minutes at room temperature (RT) and washed with PBS twice. The fixed cells were permeabilized with PBST (0.1% Triton X-100) for 15 minutes at room temperature and blocked with 5% goat serum in PBST for 30 minutes at RT. The cells were incubated with anti-G3BP1 antibody H-10 (Catalog No. sc-365338 at 1:200 dilution; Santa Cruz Biotechnology, Inc., Dallas, Texas, United States of America) for 2 hours at RT and washed with PBST (0.1% Tween-20) for 5 minutes three times. Next, cells were incubated with goat anti-mouse Alexa 594 antibody (Catalog No. 115-585-003 at 1:800 dilution; Jackson ImmunoResearch, West Grove, Pennsylvania, United States of America) for 30 minutes at RT. The cells were washed twice with PBST, stained with Hoechst 33342 (Catalog No. H3570 at […]; Thermo Fischer Scientific) in PBST for 5 minutes, and washed with PBS twice for 5 minutes. The coverslips were mounted in PROLONG™ Gold AntiFade Mountant (Catalog No. P36930, Thermo Fisher Scientific) and imaged using NIS Elements AR software and a Nikon Eclipse Ti microscope equipped with a ×100 objective and CMOS camera. […] A CellProfiler pipeline was developed to quantify the number of stress granules under each condition. Briefly, cells were recognized as blue^+ (nuclei) red^+ (G3BP1) objects, and the red^+ granules that meet the shape and size threshold were identified and counted. Cells on the border of linages were excluded from the analysis for more accurate quantification.
We used immunofluorescence (IF) detection for phenotypic screening of SuTEx compound activity on stress-induced PB and SG levels in cells (FIG. 1B). PBs were induced through glucose deprivation of HEK293T cells and detected by immunofluorescence with anti-enhancer of mRNA-decapping protein 4 (EDC4) as previously described (Kedersha & Anderson, 2007; Ciancone et al., 2022) (~4 vs 2 PBs/cell in −glucose and +glucose conditions, respectively; FIG. 8). EDC4 is an established PB marker for mammalian cells and is important for PB formation (Kedersha & Anderson, 2007; Luo et al., 2018). SGs were induced in HeLa cells by [COMPOUND LEFT OUT] treatments and detected by fluorescent staining with anti-Ras GTPase-activating protein-binding protein 1 (G3BP1) antibody (75 μM [COMPOUND LEFT OUT], 30 min; FIG. 9). G3BP1 foci have been used in previous IF studies to identify SGs in cells (Kedersha & Anderson, 2007). […]

[2] = Lipophilic efficiency calculation (cLogP from ChemDraw); conditions: from IC50 (AHL-030) or EC50 (HHS-166) and cLogP
Experimental: Lipophilic efficiency calculations for AHL-030 and HHS-166. Lipophilic efficiency was calculated as previously described in Leeson & Springthorpe, 2007 using IC50 (AHL-030) and EC50 (HHS-166) potency values from experiments and c Log P values from ChemDraw (Version 20.0.0.41 on a Windows PC): […]

[3] = tested on: G3BP1 WT-rescued G3BP KO cells; assay: SG formation in G3BP KO U20S cells rescued with G3BP1 WT; assay type: cell-based; conditions: 2 h; for inhibition at 25 µM: G3BP1 WT-rescued G3BP KO U20S cells, read-out: reduction in SGs/cell; for effect on SG formation (in words): G3BP1 WT-rescued G3BP KO cells, 25 μM
Experimental: G3BP KO and rescue studies. U20S G3BP1/2 double knockout (G3BP KO) cell-line was a kind gift from the C. Brangwynne lab (Princeton University, Princeton, New Jersey, United States of America) and generated as previously described in Kedersha et al., 2016. G3BP KO cells were seeded at 9.0×10^4 in a 24-well plate with 12-mm glass coverslips. Next day, the cells were transfected with […] vectors with 1 μg/mL tetracycline and LIPOFECTAMINE™ 3000 brand transfection reagent according to the manufacturer's protocol (Thermo Fisher Scientific). 20 hours post-transfection, the cells were treated with 25 μM SuTEx probes for 2 hours in DMEM medium without FBS. The cells were then treated with 75 μM NaAsO2 for 30 minutes and fixed with 3% paraformaldehyde in PBS for 15 minutes at RT and washed with PBS twice. The same protocols for IF of HeLa cells and quantification of G3BP1-positive SGs described above were followed thereafter.
To determine whether the cell biological effects mediated by HHS-166 were Y40-dependent, we expressed recombinant G3BP1 WT or Y40 mutant in previously established G3BP1/2 double knockout U20S (G3BP KO) cells (Kedersha et al., 2016; Sanders et al., 2020) and evaluated the resulting effects on SG response to [COMPOUND LEFT OUT]. We compared SG response of G3BP KO cells expressing a G3BP1 Y40 covalent binding- and phospho-deficient mutant (Y40F) with a phosphomimetic counterpart (Y40E). G3BP KO cells were previously shown to be deficient in [COMPOUND LEFT OUT]-induced SG formation (Sanders et al., 2020). Expression of G3BP1 WT rescued this deficiency and restored cellular SG response to [COMPOUND LEFT OUT] [1.6 vs 11 SGs/cell in (−)[COMPOUND LEFT OUT] vs (+)[COMPOUND LEFT OUT], respectively; FIGS. 6A and 6B].

LipE (lipophilic efficiency) [2]	Structure (SMILES)	effect on SGs (in words) [1]	inhibition at 25 µM ([1]; Homo sapiens) [%]	fold induction at 25 µM ([1]; Homo sapiens, read-out: increase in SGs per cell)	inhibition at 25 µM [3] [%]	effect on SG formation (in words) [3]
	CC(C)c1cc(C(C)C)c(S(=O)(=O)n2cc(-c3ccc(C(F)(F)F)cc3)nn2)c(C(C)C)c1 [AHL-003]	block both types of RNP granules; also recorded: inhibited	> 70			
7	COc1ccc(S(=O)(=O)n2cc(CS(C)(=O)=O)nn2)cc1 [AHL-030, 1-((4-Methoxyphenyl)sulfonyl)-4-((methylsulfonyl)methyl)-1H-1,2,3-triazole]	SG enhancer; also recorded: SG-enhancing; also recorded: enhance SGs; also recorded: increased SGs		~2		
	N#Cc1ccc(S(=O)(=O)n2cc(-c3cccc(Cl)c3)nn2)cc1 [EKT231, 4-((4-(3-Chlorophenyl)-1H-1,2,3-triazol-1-yl)sulfonyl)benzonitrile]				9 to 13	not observed; also recorded: inactive
3	COc1ccc(S(=O)(=O)n2cc(C3CCCCC3)nn2)cc1 [HHS-166, 4-Cyclohexyl-1-((4-methoxyphenyl)sulfonyl)-111-1,2,3-triazole]	moderate, but statistically significant inhibitory activity; also recorded: enriched activity; also recorded: inhibits SG assembly; also recorded: inhibited SGs	~50		57	statistically significant decrease in SGs; also recorded: blocked; also recorded: statistically significant decreases in SG formation
